Key:
[1] = Inhibiting effect of free radicals: absorbance at 516 nm in the presence of radical diphenyl picryl hydrazide (XI); format: biochemical; details: ethanolic solution, 200 micromoles per liter compound, 100 micromoles per liter radical (XI), stirred 30 minutes at 20° C., 1-cm vessel
Procedure: The antioxidant potential in solution of the compounds (I) is evaluated by measuring their reaction with the free radical diphenyl-picryl-hydrazide (XI) per C. T. Ho, S. Agric. Food Chem. 1999, p. 3975, using methyl gallate as a reference (XII).
The inhibiting effect of free radicals claimed for compounds (Ia) and (Ib) obtained in a pure state was evaluated by measuring their absorbance in UV spectrophotometry at 516 nanometers in the presence of radical diphenyl picryl hydrazide (XI).
We prepared ethanolic solutions containing 200 micromoles per liter of the compound to be tested and 100 micromoles per liter of radical (XI), stirred for 30 minutes at 20° C. and placed in a 1-cm long vessel, and we measured the absorbances.

[2] = Assay of the free radical scavenging activity: addition of radical (XI) solution until purple color, absorbance at 516 nm; format: biochemical
Description: b) Assay of the free radical scavenging activity of amides (Ia) and (Ib):
Under absorbance measurement conditions of 516 nanometers, we placed 2 micromoles of reference or substrate (Ia) and (Ib) under the UV cell.
We introduced a solution of 200 micromoles of radical (XI) until the purple color characteristic of the radical and measured the absorbance of the medium: […]

What does the source list for `COC(=O)c1cc(O)c(O)c(O)c1` [Methyl gallate, methyl gallate]?
Absorbance at 516 nm [1]: 0.06; (XI) consumed ([2]; 2 micromoles of reference or substrate, solution of 200 micromoles of radical (XI) introduced until purple color): 27.7 mL; Absorbance at 516 nm ([2]; absorbance of the medium after addition of radical (XI) until purple color, 2 micromoles of substrate): 0.34

From patent US8207229B1, “Preparation of hydroquinone amide compounds with antioxidant properties” (Catalys SAS, priority 2008, dated 2012)
